Where no end group is shown, it is not given here.

The values that follow come from paper PMC11928319 (Nature Plants, 2025).

This data set in a line: Peptide quantification by mass spectrometry after incubation in cell-free supernatant of Rhodanobacter R179. The note with it: axenic XVM2 medium, 1h, 1 µM AtPep1, NHS-acetate modified, LC-MS [M+2H]. The data set is classed as in vitro ADME. Here is the method: Elicitors were also supplemented into the medium prior to solidification at a final concentration of 1 µM. The flg22 ([…]) and AtPep1 ([…]) peptides were synthesized by EZbiolab. elf18^R179 (Ac-[…]) and elf18 (Ac-[…]) were synthesized by GenScript and EZbiolab, respectively. For inoculation with the bacterial supernatant, bacteria were cultivated overnight in XVM2 minimal medium (20 mM NaCl, 10 mM (NH4)2SO4, 5 mM MgSO4, 1 mM CaCl2, 0.16 mM KH2PO4, 0.32 mM K2HPO4, 0.01 mM FeSO4, 10 mM fructose, 10 mM sucrose, 0.03% Casamino acids, pH 6.7)[76] to a final concentration of OD600 = 0.4. Bacteria were pelleted by centrifugation (11,600 g, 2 min), and the supernatant was sterile-filtered using filter units with MF-Millipore membrane (0.22 µm; Millex). The supernatant was incubated in boiling water for 30 min for heat treatment. Then, 25 ml of 1× MS with 20 g l^−1 Bacto Agar was mixed with 25 ml of supernatant prior to medium solidification and poured into square petri dishes. Sterilized seeds were placed on solidified agar in square petri dishes and vertically incubated for 14 days.
Bacterial supernatants were prepared as described in ‘Agar-based cultivation of axenic plants and co-cultivation with bacteria, bacterial supernatants and elicitors’. Here, additionally, the peptides dRGF1 (DYSNPGHHP-Hyp-RHN) and PSY1 (D-Y(SO3H)-[…]-Hyp-Hyp-S) synthesized by Scilight Peptide were incubated for 1 h with 1 µM of peptides in a plant cultivation light chamber (day-light condition; see ‘Plant cultivation conditions’), and the samples were frozen at −20 °C until further processing. For the investigation of AtPep1 degradation, the AtPep1 peptide was first modified by acetylation (six to seven times). To this end, 100-µl aliquots of peptides were treated with 10 µl of NHS acetate solution (1 M NHS acetate in 50% ACN/PBS) and incubated for 30 min with shaking. The reaction was quenched by the addition of 100 µl of 100 mM Tris-HCl (pH 8.5) and incubated for 10 min. For comparison of the non-acetylated peptides with the above-described modified AtPep1 peptides, aliquots of the non-acetylated peptides were processed as described above, but without the modifying NHS reaction. To this end, 100-µl aliquots of the sample were mixed with 100 µl of PBS buffer (137 mM NaCl, 2.7 mM KCl, 10 mM Na2HPO4, 1.8 mM KH2PO4; pH 7.4). The samples were then further diluted with 100 µl of 100 mM Tris-HCl (pH 8.5) and incubated for 10 min. All samples were acidified with 5 µl of TFA and desalted using StageTips with C18 Empore disk membranes (3M)[109]. The samples were dried in a vacuum evaporator and dissolved in 10 µl of 2% ACN (0.1% TFA for analysis).
The samples were analysed using an EASY-nLC 1200 (Thermo Fisher) coupled to a QExactive Plus mass spectrometer (Thermo Fisher). Peptides were separated on 16-cm frit-less silica emitters (New Objective, 75 µm inner diameter), packed in-house with reversed-phase ReproSil-Pur C18 AQ 1.9 µm resin (Dr. Maisch). Peptides were loaded on the column and eluted for 50 min using a segmented linear gradient of 5% to 95% solvent B (0 min, 5% B; 0–5 min, 15% B; 5–35 min, 50% B; 35–45 min, 95% B; 45–50 min, 95% B) (solvent A: 0% ACN, 0.1% FA; solvent B: 80% ACN, 0.1% FA) at a flow rate of 300 nl min^−1. Mass spectra were acquired in data-dependent acquisition mode with a TOP10 method. Mass spectrometry spectra were acquired in the Orbitrap analyser with a mass range of 300–1,500 m/z at a resolution of 70,000 full width at half maximum (FWHM) and a target value of 3 × 10^6 ions. Precursors were selected with an isolation window of 1.3 m/z. Higher-energy collision dissociation (HCD) fragmentation was performed at a normalized collision energy of 25. Tandem mass spectrometry (MS/MS) spectra were acquired with a target value of 5 × 10^5 ions at a resolution of 17,500 FWHM, a maximum injection time of 85 ms and a fixed first mass of 100 m/z. […]

For ATKVKAKQRGKEKVSSGRPGQHN [AtPep1], the “Total_area MS1 of identified AtPep1 cleavage product (acetylated […])” value reads like this: (replicate 2) 0.00E+00; (replicate 3) 0.00E+00.
